Experiments:
human B1R = target: T1, human B1R (Homo sapiens, UniProt P46663); test: FLIPR Ca2+ functional assay, B1R antagonism, human B1R in CHO K1 cells; format: cell-based; conditions: test substance 10 μM; hB1R CHO K1 cells; agonist Lys-Des-Arg9 bradykinin at EC80; % of maximum achievable inhibition
T1 construct: expressed in transfected cells; host or cells: CHO K1 cells (Chinese hamster ovary), stably transfected
T1 sequence (P46663 1-353): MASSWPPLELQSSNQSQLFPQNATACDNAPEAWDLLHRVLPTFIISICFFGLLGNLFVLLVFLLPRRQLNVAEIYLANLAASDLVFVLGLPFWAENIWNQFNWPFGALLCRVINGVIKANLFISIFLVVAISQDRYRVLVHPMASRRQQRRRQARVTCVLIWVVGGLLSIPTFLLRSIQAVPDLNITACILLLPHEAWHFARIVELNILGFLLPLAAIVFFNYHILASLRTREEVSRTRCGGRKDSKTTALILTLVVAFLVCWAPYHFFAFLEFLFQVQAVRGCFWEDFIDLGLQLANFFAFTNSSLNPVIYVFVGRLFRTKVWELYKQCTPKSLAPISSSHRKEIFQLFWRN
Procedure: The agonistic or antagonistic action of substances on the bradykinin 1 receptor (B1R) of the human and rat species can be quantified with ectopically expressing cell lines (CHO K1 cells) and with the aid of a Ca^2+-sensitive dye (Fluo-4) using a fluorescent imaging plate reader (FLIPR). The value in % activation is based on the Ca^2+ signal after addition of Lys-Des-Arg^9 bradykinin (0.5 nM) or Des-Arg^9 bradykinin (100 nM). Antagonists lead to a suppression of the Ca^2+ influx following administration of the agonist. The % inhibition in comparison with the maximum achievable inhibition is indicated.
1. Functional Investigation on the Bradykinin 1 Receptor (B1R) The agonistic or antagonistic action of substances can be determined on the bradykinin 1 receptor (B1R) of the human and rat species with the following assay. According to this assay, the Ca^2+ inflow through the channel is quantified with the aid of a Ca^2+-sensitive dye (Fluo-4 type, Molecular Probes Europe BV, Leiden, Netherlands) in a fluorescent imaging plate reader (FLIPR, Molecular Devices, Sunnyvale, USA). 2. Method: Chinese hamster ovary cells (CHO K1 cells) which are stably transfected with the human B1R gene (hB1R cells) or the B1R gene of the rat (rB1R cells) are used. For functional investigations these cells are plated-out onto black 96-well plates with a clear base (BD Biosciences, Heidelberg, Germany or Greiner, Frickenhausen, Germany) in a density of 20,000-35,000 cells/well. Overnight the cells are incubated at 37° C. and 5% CO2 in culture medium (hB1R cells: Ham's Nutrient Mixture F12, Gibco Invitrogen GmbH, Karlsruhe, Germany or DMEM, Sigma-Aldrich, Taufkirchen, Germany; rB1R cells: D-MEM/F12, Gibco Invitrogen, Karlsruhe, Germany) with 10 vol. % FBS (foetal bovine serum, Gibco Invitrogen GmbH, Karlsruhe, Germany or PAN Biotech GmbH, Aidenbach, Germany).
On the following day the cells are loaded with 2.13 μM Fluo-4 (Molecular Probes Europe BV, Leiden, Netherlands) in HBSS buffer (Hank's buffered saline solution, Gibco Invitrogen GmbH, Karlsruhe, Germany) with 2.5 mM probenecid (Sigma-Aldrich, Taufkirchen, Germany) and 10 mM HEPES (Sigma-Aldrich, Taufkirchen, Germany) for 60 min at 37° C. The plates are subsequently washed twice with HBSS buffer, and HBSS buffer which additionally contains 0.1% BSA (bovine serum albumin; Sigma-Aldrich, Taufkirchen, Germany), 5.6 mM glucose and 0.05% gelatine (Merck KGaA, Darmstadt, Germany) is added. After a further incubation of 20 minutes at RT, the plates are inserted into the FLIPR for Ca^2+ measurement. Alternatively they are washed with buffer A (15 mM HEPES, 80 mM NaCl, 5 mM KCl, 1.2 mM CaCl2, 0.7 mM MgSO4, 2 g/l glucose, 2.5 mM probenecid) and loaded with buffer A with added 2.5 μM Fluo-4 and 0.025% Pluronic F127 (Sigma-Aldrich, Taufkirchen, Germany). The cells are then washed twice with buffer A and incubated for 30 minutes with buffer A, which additionally contains 0.05% BSA and 0.05% gelatine, at RT and then used for Ca^2+ measurement in the FLIPR. The Ca^2+-dependent fluorescence is measured here before and after addition of substances (λex=488 nm, λem=540 nm). The quantification is performed by measuring the highest fluorescence intensity (FC, fluorescence counts) over time.
The FLIPR protocol comprises two additions of substance. Test substances (10 μM) are first pipetted onto the cells and the Ca^2+ inflow is compared with the control (hB1R: Lys-Des-Arg^9 bradykinin >=50 nM; rB1R: Des-Arg^9 bradykinin 10 μM). The value in % activation based on the Ca^2+ signal after addition of Lys-Des-Arg^9 bradykinin (>=50 nM) or Des-Arg^9 bradykinin (10 μM) is obtained therefrom. After incubation for 10-20 minutes, Lys-Des-Arg^9 bradykinin (hB1R) or Des-Arg^9 bradykinin (rB1R) is applied in the EC80 concentration and the inflow of Ca^2+ is likewise determined.
Antagonists lead to a suppression of the Ca^2+ inflow. The % inhibition in comparison with the maximum achievable inhibition is calculated. […]

B1R of the rat = target: T2, B1R of the rat (Rattus norvegicus, UniProt P97583); test: FLIPR Ca2+ functional assay, B1R antagonism, rat B1R in CHO K1 cells; format: cell-based; conditions: test substance 10 μM; rB1R CHO K1 cells; agonist Des-Arg9 bradykinin at EC80; % of maximum achievable inhibition
T2 construct: expressed in transfected cells; host or cells: CHO K1 cells (Chinese hamster ovary), stably transfected
T2 sequence (P97583 1-337): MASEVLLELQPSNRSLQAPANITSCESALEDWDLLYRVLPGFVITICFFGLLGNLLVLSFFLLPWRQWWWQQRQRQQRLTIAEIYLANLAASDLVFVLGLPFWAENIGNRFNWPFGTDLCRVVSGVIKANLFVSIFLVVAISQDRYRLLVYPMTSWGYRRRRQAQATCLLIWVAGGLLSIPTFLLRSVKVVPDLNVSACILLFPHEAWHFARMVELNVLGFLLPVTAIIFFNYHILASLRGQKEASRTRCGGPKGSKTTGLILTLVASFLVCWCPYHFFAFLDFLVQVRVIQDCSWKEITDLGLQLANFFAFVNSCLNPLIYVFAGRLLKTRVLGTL
Summary of the method: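 IC50 values come from varied compound concentrations applied 10-20 min before an EC80 agonist challenge, with Des-Arg9 bradykinin for rat and Lys-Des-Arg9 bradykinin for human receptor. Ca2+ influx in Fluo-4-loaded CHO K1 transfectants was measured by FLIPR peak fluorescence. Data are % inhibition vs maximum, n=2-3, N>=2.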

| inhibition at 10 µM (human B1R) [%] | inhibition at 10 µM (B1R of the rat) [%] | Structure (SMILES) |
| --- | --- | --- |
| – | 17.9 | O=C(CC1c2cccn2CCN1S(=O)(=O)c1ccccc1)N1CCN(c2ncc(C(F)(F)F)cc2Cl)CC1 (stereo not drawn) [Example 265, 2-[2-(Benzenesulfonyl)-1,2,3,4-tetrahydro-pyrrolo[1,2-a]pyrazin-1-yl]-1-[4-[3-chloro-5-(trifluoromethyl)-pyridin-2-yl]-piperazin-1-yl]-ethanone] |
| – | -3.52 | O=C(CC1c2cccn2CCN1S(=O)(=O)c1ccccc1)N1CCN(Cc2ccc(Cl)c(Cl)c2)CC1 (stereo not drawn) [Example 266, 2-[2-(Benzenesulfonyl)-1,2,3,4-tetrahydro-pyrrolo[1,2-a]pyrazin-1-yl]-1-[4-[(3,4-dichlorophenyl)-methyl]-piperazin-1-yl]-ethanone] |
| – | -4.75 | CN1CCN(C(=O)CC2c3cccn3CCN2S(=O)(=O)c2ccccc2)C(c2ccccc2)C1 (stereo not drawn) [Example 267, 2-[2-(Benzenesulfonyl)-1,2,3,4-tetrahydro-pyrrolo[1,2-a]pyrazin-1-yl]-1-(4-methyl-2-phenyl-piperazin-1-yl)-ethanone] |
| – | 28 | O=C(CC1c2cccn2CCN1S(=O)(=O)c1ccccc1)N1CCC(c2ccccc2)CC1 (stereo not drawn) [Example 268, 2-[2-(Benzenesulfonyl)-1,2,3,4-tetrahydro-pyrrolo[1,2-a]pyrazin-1-yl]-1-(4-phenyl-piperidin-1-yl)-ethanone] |
| – | 1.05 | N#Cc1cccnc1N1CCN(C(=O)CC2c3cccn3CCN2S(=O)(=O)c2cccc(C(F)(F)F)c2)CC1 (stereo not drawn) [Example 269, 2-[4-[2-[2-[[3-(Trifluoromethyl)phenyl]sulfonyl]-1,2,3,4-tetrahydro-pyrrolo[1,2-a]pyrazin-1-yl]-acetyl]-piperazin-1-yl]-pyridine-3-carbonitrile] |
| – | 3.1 | CN(C)c1ccc(C2CCCN2C(=O)CC2c3cccn3CCN2S(=O)(=O)c2ccc(C(F)(F)F)cc2Cl)cc1 (stereo not drawn) [Example 270, 2-[2-[[2-Chloro-4-(trifluoromethyl)-phenyl]sulfonyl]-1,2,3,4-tetrahydro-pyrrolo[1,2-a]pyrazin-1-yl]-1-[2-(4-dimethylaminophenyl)-pyrrolidin-1-yl]-ethanone] |

More lines, now with the values behind:

| Structure (SMILES) | inhibition at 10 µM (human B1R) [%] | inhibition at 10 µM (B1R of the rat) [%] |
| --- | --- | --- |
| COc1cc(C)c(S(=O)(=O)N2CCn3cccc3C2CC(=O)N2CCN(C3CCN(C)CC3)CC2)c(C)c1 (stereo not drawn) [Example 1, 2-(2-(4-Methoxy-2,6-dimethylphenylsulfonyl)-1,2,3,4-tetrahydro-pyrrolo[1,2-a]pyrazin-1-yl)-1-(4-(1-methylpiperidin-4-yl)piperazin-1-yl)ethanone] | 94.8 | 100 |
| COc1cc(C)c(S(=O)(=O)N2CCn3cccc3C2COCC(=O)N2CCN(C3CCN(C)CC3)CC2)c(C)c1 (stereo not drawn) [Example 2, 2-((2-(4-Methoxy-2,6-dimethylphenylsulfonyl)-1,2,3,4-tetrahydropyrrolo[1,2-a]pyrazin-1-yl)methoxy)-1-(4-(1-methylpiperidin-4-yl)piperazin-1-yl)ethanone] | 99.9 | 98.9 |
| COc1cc(C)c(S(=O)(=O)N2CCn3cccc3C2CC(=O)N2CCC3(CCN(C4CC4)C3)C2)c(C)c1 (stereo not drawn) [Example 3, 1-(7-Cyclopropyl-2,7-diazaspiro[4.4]nonan-2-yl)-2-(2-(4-methoxy-2,6-dimethylphenylsulfonyl)-1,2,3,4-tetrahydropyrrolo[1,2-a]pyrazin-1-yl)ethanone] | 69.6 | 58.8 |
| COc1cc(C)c(S(=O)(=O)N2CCn3cccc3C2COCC(=O)N2CCC3(CC2)CCN(c2ccncc2)C3)c(C)c1 (stereo not drawn) [Example 4, 2-((2-(4-Methoxy-2,6-dimethylphenylsulfonyl)-1,2,3,4-tetrahydropyrrolo[1,2-a]pyrazin-1-yl)methoxy)-1-(2-(pyridin-4-yl)-2,8-diazaspiro[4.5]decan-8-yl)ethanone] | 99.8 | 104 |
| O=C(COCC1c2cccn2CCN1S(=O)(=O)c1ccccc1C(F)(F)F)N1CCC(Oc2ccncc2)CC1 (stereo not drawn) [Example 5, 1-(4-(Pyridin-4-yloxy)piperidin-1-yl)-2-((2-(2-(trifluoromethyl)phenylsulfonyl)-1,2,3,4-tetrahydropyrrolo[1,2-a]pyrazin-1-yl)methoxy)ethanone] | 99.8 | 102 |
| Cc1cccc(Cl)c1S(=O)(=O)N1CCn2cccc2C1COCC(=O)N1CCC(Oc2ccncc2)CC1 (stereo not drawn) [Example 6, 2-((2-(2-Chloro-6-methylphenylsulfonyl)-1,2,3,4-tetrahydropyrrolo[1,2-a]pyrazin-1-yl)methoxy)-1-(4-(pyridin-4-yloxy)piperidin-1-yl)ethanone] | 99.6 | 100 |
| COc1cc(C)c(S(=O)(=O)N2CCn3cccc3C2COCC(=O)N(C)CCC2CCN(c3ccncc3)CC2)c(C)c1 (stereo not drawn) [Example 7] | 99.9 | 102 |
| COc1ccc2cc(S(=O)(=O)N3CCn4cccc4C3CC(=O)NC3CCc4cc(CN5CCCCC5)ccc4C3)ccc2c1 (stereo not drawn) [Example 8, 2-(2-(6-Methoxynaphthalen-2-ylsulfonyl)-1,2,3,4-tetrahydropyrrolo[1,2-a]pyrazin-1-yl)-N-(6-(piperidin-1-ylmethyl)-1,2,3,4-tetrahydronaphthalen-2-yl)acetamide] | 99.9 | 104 |
| Cc1cccc(Cl)c1S(=O)(=O)N1CCn2cccc2C1CC(=O)N1CCN(CCO)CC1 (stereo not drawn) [Example 263, 2-[2-[(2-Chloro-6-methyl-phenyl)sulfonyl]-1,2,3,4-tetrahydro-pyrrolo[1,2-a]pyrazin-1-yl]-1-[4-(2-hydroxy-ethyl)-piperazin-1-yl]-ethanone] | – | 2.37 |
| O=C(CC1c2cccn2CCN1S(=O)(=O)c1ccccc1)N1CCC[C@H]1CN1CCCC1 (stereo partly drawn) [Example 264, 2-[2-(Benzenesulfonyl)-1,2,3,4-tetrahydro-pyrrolo[1,2-a]pyrazin-1-yl]-1-[(2S)-2-(pyrrolidin-1-yl-methyl)-pyrrolidin-1-yl]-ethanone] | – | 1.78 |
